Source: patent publication US7569596B2, “Imidazolamino compounds” (National Health Research Institutes, priority 2002, dated 2009)

Test system: Murine leukemic P388 cells
Test: In vivo anticancer activity, murine leukemic P388 model
Design: species or system DBA/2J mice
Settings: mice intravenously inoculated with P388 cells; given P.O. or I.V. at different doses
Method: Evaluation of in vivo Anticancer Activity
The in vivo anticancer activities of the compounds were evaluated by the following murine leukemic P388 model. Inbred female DBA/2J mice of 4-5 week-old were purchased from the National Laboratory Animals Breeding and Research Center, Taipei, Taiwan, ROC. Murine leukemic P388 cells were purchased from the Japanese Collection of Research Bioresources, Japan. P388 cells were cultured and propagated in RPM11640 medium supplemented with 50 μM 2-mercaptoethanol and 10% fetal bovine serum. Mice at the age of 6 weeks were grouped as the treatment, negative control and positive control groups at 7 to 8 mice per group. All mice were intravenously inoculated with the P388 cells at one million per mouse one day before the treatments initiated. Compound 6 was dissolved in dimethyl sulfoxide (DMSO) and then diluted in 0.5% carboxymethyl cellulose or a Cremophor-based vehicle with the final concentration of DMSO less than 0.5%. Different treatment groups were orally (P.O.) or intravenously (I.V.) given, respectively, with Compound 6 of different doses for a pharmacological dose-response relationship. The mice of the negative control group were treated with the dosing vehicle only. […] The cancer cell-inoculated animals were monitored twice daily. Survival fractions of the mice were recorded. […]

Nc1nc(-c2cccs2)cn1-c1nc(-c2ccccc2)cs1 [Compound 6, 1-(4-phenyl-1,3-thiazol-2-yl)-4-(2-thienyl)-1H-2-imidazolamine]
survival rate of the inoculated mice: increased the survival rate
